Results published in article PMC12473540, “Cytotoxic Activity of Chemical Constituents of Clerodendrum glabrum and Combretum nelsonii Root Extracts Against Selected Cancer Cell Lines” (Plants, 2025).
In brackets after ≈: the same amount, converted by molar mass. Like-named read-outs stand apart in the source and are kept apart here.

How the values were obtained:
[1] = system: colon (COL-2) cancer cells; design: method as in doi:10.18063/cp.v1i4.255, PMID 20614808, PMID 25355727, doi:10.1076/phbi.37.2.148.6082; conditions: ferruginol; cited from earlier work
[2] = system: MCF-7; conditions: cited from earlier work
[3] = system: human liver hepatocellular carcinoma HepG2 cells; design: method as in doi:10.18063/cp.v1i4.255, PMID 20614808, PMID 25355727, doi:10.1076/phbi.37.2.148.6082; conditions: ferruginol; read-out: Literature report HepG2 (IC50); cited from earlier work
[4] = system: human epithelial colorectal adenocarcinoma (Caco-2) cells; assay: in vitro; conditions: for CC50: Homo sapiens, Caco-2, 48 h, read-out: Caco-2 (LC50)
Procedure: (§1) The antiproliferative activity of the crude extracts and compounds isolated from C. glabrum and C. nelsonii were tested against heterogenous human epithelial colorectal adenocarcinoma (Caco-2) and hormone receptor positive breast cancer (MCF-7) cells using the MTT assay. The Vero African green monkey kidney cells were used as the non-cancerous cell line for comparison. Doxorubicin was used as the positive control.
(§2) The cytotoxic activity of extracts and isolated compounds was evaluated using the MTT assay against colorectal adenocarcinoma (Caco-2, ATCC® HTB-37™), breast adenocarcinoma (MCF-7, ATCC® HTB-22™), and non-cancerous monkey kidney cells (Vero, ATCC® CCL-81™). Cell culture and maintenance were carried out following standard protocols. The cells were seeded in 96-well plates and exposed to varying concentrations of extracts (0.025–1 mg/mL) and compounds (0.2–200 µg/mL) for 48 h. Doxorubicin was used as a positive control, and DMSO as a negative control. Cell viability was determined by MTT reduction and absorbance was measured at 570 nm. LC50 values were calculated, and the selectivity index(SI) was obtained by dividing LC50 values of Vero cells by those of the cancer cell lines.

[5] = in vitro
Procedure: as §1, §2

[6] = system: hormone receptor positive breast cancer (MCF-7) cells; assay: MTT cytotoxicity assay on MCF-7 cells; conditions: for CC50: Homo sapiens, MCF7, 48 h, read-out: MCF-7 (LC50); for Selectivity Index MCF-7: LC50 of Vero cells divided by LC50 of MCF-7
Procedure: as §1
as §2, with “The cells were seeded in 96-well plates and exposed to varying concentrations of extracts (0.025–1 mg/mL) and compounds (0.2–200 µg/mL) for 48 h.” left out

[7] = system: prostate cancer PC3 cells; design: method as in doi:10.18063/cp.v1i4.255, PMID 20614808, PMID 25355727, doi:10.1076/phbi.37.2.148.6082; conditions: ferruginol; read-out: Literature report PC3 (IC50); cited from earlier work
[8] = system: gastric adenocarcinoma AGS cells; conditions: cited from earlier work
[9] = system: human colon HCT116; design: method as in doi:10.4103/pm.pm_265_20; conditions: royleanone, result in words; cited from earlier work
[10] = MTT cytotoxicity assay on Caco-2 cells; conditions: African green monkey (Vero) and human (Caco-2), Caco-2
Procedure: as §1, §2

[11] = system: prostate cancer cells (LNCaP); design: method as in ref 45 (ref 58); conditions: royleanone; ref 45 (ref 58); read-out: Literature report LNCaP IC50; cited from earlier work
[12] = system: breast MDA-MB-231 cancer cell lines; design: method as in doi:10.4103/pm.pm_265_20; conditions: royleanone; read-out: Literature report MDA-MB-231 IC50; cited from earlier work
[13] = system: pancreas-a (BXPC-3); design: method as in ref 50 = [50]; 50. Akim A. Biological Activities of Oryzanol, Stigmasterol and Microminutinin on Human Breast Cancer Cell-Line, MCF-7 Ph.D. Thesis University Putra Malaysia Serdang, Malaysia 2004; conditions: cited from earlier work
[14] = system: leukemia (P388); design: method as in ref 50 = [50]; 50. Akim A. Biological Activities of Oryzanol, Stigmasterol and Microminutinin on Human Breast Cancer Cell-Line, MCF-7 Ph.D. Thesis University Putra Malaysia Serdang, Malaysia 2004; conditions: cited from earlier work
[15] = system: colon (KM20L2); design: method as in ref 50 = [50]; 50. Akim A. Biological Activities of Oryzanol, Stigmasterol and Microminutinin on Human Breast Cancer Cell-Line, MCF-7 Ph.D. Thesis University Putra Malaysia Serdang, Malaysia 2004; conditions: cited from earlier work
[16] = system: tubulin; design: method as in PMID 12059907, PMID 10893310; conditions: combretastatin A-1; read-out: Tubulin inhibition IC50; cited from earlier work
[17] = system: prostate (DU-145); design: method as in ref 50 = [50]; 50. Akim A. Biological Activities of Oryzanol, Stigmasterol and Microminutinin on Human Breast Cancer Cell-Line, MCF-7 Ph.D. Thesis University Putra Malaysia Serdang, Malaysia 2004; conditions: cited from earlier work
[18] = system: lung-NCS (NCI-H460); design: method as in ref 50 = [50]; 50. Akim A. Biological Activities of Oryzanol, Stigmasterol and Microminutinin on Human Breast Cancer Cell-Line, MCF-7 Ph.D. Thesis University Putra Malaysia Serdang, Malaysia 2004; conditions: cited from earlier work
[19] = system: triple negative breast cancer HCC70 cells; design: method as in doi:10.4314/ecajps.v11i2.44769; conditions: stigmasterol; cited from earlier work
[20] = system: colon cancer cell Caco-2; design: method as in doi:10.4314/ecajps.v11i2.44769; conditions: stigmasterol; cited from earlier work
[21] = system: human colon carcinoma SW620 cell lines; conditions: stigmasterol, in Table 2; cited from earlier work
[22] = African green monkey, Vero kidney cells (ATCC CCL-81), non-cancerous

Q: Which “Literature report colon (COL-2) ED50” value [1] does the source give for `CC(C)c1cc2c(cc1O)[C@@]1(C)CCCC(C)(C)[C@@H]1CC2` [Compound 1, 12-hydroxy-abieta-8,11,13-triene] here?
A: > 20 µg/mL

Q: What about the IC50 ([2]; ferruginol, read-out: Literature report MCF-7 (IC50)) of the same compound?
A: 12 µM

Q: And the IC50 [3]?
A: 68.5 µM

Q: What about the “Selectivity Index Caco-2” value ([4]; Caco-2) of the same compound?
A: 8.23 × 10^−6

Q: What about the CC50 [4] of the same compound?
A: 24.3 µg/mL (≈ 84.8 µM)

Q: What about the CC50 at 48 h ([5]; African green monkey) of the same compound?
A: 0.0002 µg/mL (≈ 0.000698 µM)

Q: What about the CC50 [6] of the same compound?
A: 48.4 µg/mL (≈ 169 µM)

Q: And the IC50 [7]?
A: 55 µM

Q: And the IC50 ([8]; ferruginol, read-out: Literature report AGS (IC50))?
A: 27 µM

Q: Which results are given for `CC(C)C1=C(O)C(=O)C2=C(CC[C@H]3C(C)(C)CCC[C@]23C)C1=O` [Compound 2, 12-hydroxy-8,12-abietadiene-11,14-dione]?
A: Literature report colon HCT116 [9]: variable; CC50 [4]: > 200 µg/mL; selectivity ratio at 48 h [10]: < 0.15; IC50 [11]: 12.5 µM; CC50 at 48 h [5]: 30.7 µg/mL (≈ 97 µM); CC50 [6]: > 200 µg/mL; Selectivity Index MCF-7 [6]: <0.150; IC50 ([8]; royleanone, read-out: Literature report AGS IC50): 18 µM; IC50 [12]: > 250 µM

Q: With `COc1ccc(/C=C\c2cc(OC)c(OC)c(OC)c2)c(O)c1O` [Compound 4, 3,4,5-trimethoxy-2′,3′hydroxyl-4′methoxy-stilbene] as the compound, how does the “BXPC-3 GI50” value [13] read?
A: 4.4 µg/mL

Q: And the “P388 GI50” value [14]?
A: 0.3 µg/mL

Q: And the “KM20L2 GI50” value [15]?
A: 0.061 µg/mL

Q: And the IC50 [16]?
A: 1.1 µM

Q: What about the CC50 at 48 h [5] of the same compound?
A: 15.3 µg/mL (≈ 46 µM)

Q: What about the “DU-145 GI50” value [17] of the same compound?
A: 0.017 µg/mL

Q: What about the CC50 [6] of the same compound?
A: 72 µg/mL (≈ 217 µM)

Q: What about the “Selectivity Index MCF-7” value [6] of the same compound?
A: 0.210

Q: And the “NCI-H460 GI50” value [18]?
A: 0.74 µg/mL

Q: Which CC50 at 48 h [5, 22] does the source give for `COc1ccc(C=Cc2cc(OC)c(OC)c(OC)c2)c(OC2OC(CO)C(O)C(O)C2O)c1O` [Compound 5a, combretastatin A-1-2′-O-β-D-glucopyranoside] here?
A: 83.8 µg/mL (≈ 169 µM)

Q: And the CC50 [6]?
A: 44.1 µg/mL (≈ 89.2 µM)

Q: What about the “Selectivity Index MCF-7” value [6] of the same compound?
A: 1.90

Q: For `COc1ccc(CCc2cc(OC)c(OC)c(OC)c2)c(OC2OC(CO)C(O)C(O)C2O)c1O` [Compound 5b, combretastatin B-1-2′-O-β-D-glucopyranoside], which CC50 at 48 h [5, 22] is on record?
A: 83.8 µg/mL (≈ 169 µM)

Q: And the CC50 [6]?
A: 44.1 µg/mL (≈ 88.8 µM)

Q: What about the “Selectivity Index MCF-7” value [6] of the same compound?
A: 1.90

Q: Which results are given for `CC[C@H](C=C[C@@H](C)[C@H]1CC[C@H]2[C@@H]3CC=C4C[C@@H](O)CC[C@]4(C)[C@H]3CC[C@]12C)C(C)C` [Compound 6, stigmasta-5,22-dien-3β-ol]?
A: IC50 [19]: > 500 µM; IC50 ([2]; stigmasterol, read-out: MCF-7 IC50): > 500 µM; CC50 [4]: > 200 µg/mL; selectivity ratio at 48 h [10]: < 0.69; CC50 at 48 h [5]: 137 µg/mL (≈ 332 µM); IC50 [20]: 132 µM; CC50 [6]: > 200 µg/mL; Selectivity Index MCF-7 [6]: <0.690; IC50 [21]: 2.79 µM

Q: For `COc1cccc2c1C(=O)c1c(O)c3c(c(O)c1C2=O)C[C@@](O)(C(=O)CO)C[C@@H]3O[C@H]1C[C@H](N)[C@H](O)[C@H](C)O1` [Doxorubicin, reference compound], which CC50 [4] is on record?
A: 0.76 µg/mL (≈ 1.4 µM)

Q: What about the selectivity ratio at 48 h [10] of the same compound?
A: 9.08

Q: And the CC50 at 48 h ([5]; African green monkey)?
A: 6.9 µg/mL (≈ 12.7 µM)

Q: What about the CC50 [6] of the same compound?
A: 3.1 µg/mL (≈ 5.7 µM)

Q: What about the “Selectivity Index MCF-7” value [6] of the same compound?
A: 2.20
